Measured values published in BindingDB's records for doi:10.3109/14756366.2010.510471 (Suven Life Sciences, 2011).

Tests used:
[1] = biological target: 5-hydroxytryptamine receptor 6 (Homo sapiens, UniProt P50406); assay: Radioligand Binding Assay; conditions: pH 7.4; 37 °C
Experimental: Briefly, receptor source and radioligand used were human recombinant expressed in HEK-293 cells and [3H] LSD (60–80 Ci/mmol), respectively. The final ligand concentration was 1.5 nM and non-specific determinant was methiothepin mesylate (0.1 μM). The reference compound and positive control was methiothepin mesylate. Reactions were carried out in 50 mM TRISHCl (pH 7.4) containing 10 mM MgCl2, 0.5 mM EDTA for 60 min at 37 °C. The reaction was terminated by rapid vacuum filtration onto glass fibre filters.

Cytochrome P450 2D6 = Cytochrome P450 2D6 (Homo sapiens, UniProt P10635); assay: Isoform-Selective Assay
Experimental: (§1) The cytochrome P450 inhibitory potential was determined using isoform-selective assays and heterologously expressed human CYP2D6 and CYP3A4.

Cytochrome P450 3A4 = Cytochrome P450 3A4 (Homo sapiens, UniProt P08684); assay: Isoform-Selective Assay
Experimental: as §1

Sequence of 5-hydroxytryptamine receptor 6 (P50406 whole entry): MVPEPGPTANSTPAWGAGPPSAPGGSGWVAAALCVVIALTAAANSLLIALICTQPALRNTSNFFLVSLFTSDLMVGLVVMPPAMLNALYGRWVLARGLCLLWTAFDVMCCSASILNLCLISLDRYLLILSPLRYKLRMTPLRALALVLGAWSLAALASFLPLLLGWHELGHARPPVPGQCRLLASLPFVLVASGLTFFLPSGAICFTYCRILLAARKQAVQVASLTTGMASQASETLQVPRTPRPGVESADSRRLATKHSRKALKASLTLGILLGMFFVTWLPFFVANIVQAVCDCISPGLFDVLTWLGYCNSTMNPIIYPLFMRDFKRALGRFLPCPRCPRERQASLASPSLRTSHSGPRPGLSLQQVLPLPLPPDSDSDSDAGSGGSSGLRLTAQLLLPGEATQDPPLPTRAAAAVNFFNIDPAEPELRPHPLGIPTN
Sequence of Cytochrome P450 2D6 (P10635 whole entry, canonical isoform): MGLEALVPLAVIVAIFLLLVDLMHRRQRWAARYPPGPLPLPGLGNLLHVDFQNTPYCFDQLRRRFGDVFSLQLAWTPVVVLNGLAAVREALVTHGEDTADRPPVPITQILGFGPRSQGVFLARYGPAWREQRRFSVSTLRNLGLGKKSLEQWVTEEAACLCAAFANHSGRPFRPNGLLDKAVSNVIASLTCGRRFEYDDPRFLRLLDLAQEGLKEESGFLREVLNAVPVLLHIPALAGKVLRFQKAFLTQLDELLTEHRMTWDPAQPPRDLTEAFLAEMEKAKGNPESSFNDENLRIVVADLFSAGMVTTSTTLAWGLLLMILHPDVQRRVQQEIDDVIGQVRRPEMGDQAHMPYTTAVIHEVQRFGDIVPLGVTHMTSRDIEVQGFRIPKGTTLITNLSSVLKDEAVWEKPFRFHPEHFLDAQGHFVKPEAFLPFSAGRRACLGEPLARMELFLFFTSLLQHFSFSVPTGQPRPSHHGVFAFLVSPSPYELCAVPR
Sequence of Cytochrome P450 3A4 (P08684 whole entry, canonical isoform): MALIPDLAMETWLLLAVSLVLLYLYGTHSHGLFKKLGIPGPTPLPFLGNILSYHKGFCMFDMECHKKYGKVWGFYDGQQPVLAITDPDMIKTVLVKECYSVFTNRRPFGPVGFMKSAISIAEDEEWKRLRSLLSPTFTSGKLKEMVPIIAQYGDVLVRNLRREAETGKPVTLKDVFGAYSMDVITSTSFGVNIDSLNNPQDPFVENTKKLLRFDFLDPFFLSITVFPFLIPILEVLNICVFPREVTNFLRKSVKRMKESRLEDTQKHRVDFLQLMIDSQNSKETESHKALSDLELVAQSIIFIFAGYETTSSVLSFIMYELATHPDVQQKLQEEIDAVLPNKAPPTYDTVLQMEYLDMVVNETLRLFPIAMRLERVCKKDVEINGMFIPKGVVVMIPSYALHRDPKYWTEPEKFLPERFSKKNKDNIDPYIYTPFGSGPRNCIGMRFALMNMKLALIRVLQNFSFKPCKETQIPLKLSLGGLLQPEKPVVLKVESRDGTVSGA

Row | Compound | Ki [1] | IC50 (Cytochrome P450 2D6) | IC50 (Cytochrome P450 3A4)
1 | CN(C)CCOc1c2n(c3cccc(F)c13)S(=O)(=O)c1ccccc1-2 [1-Fluoro-10-(2-N,N-Dimethylaminoethoxy)-5-Thia-4-b-azaindeno [2,1-a]indene-5,5-Dioxide (8o)] | > 500 nM |  | 
2 | CN(C)CCOc1c2n(c3ccc(Cl)cc13)S(=O)(=O)c1ccccc1-2 [2-Chloro-10-(2-N,N-Dimethylaminoethoxy)-5-Thia-4-b-azaindeno[2,1-a]indene-5,5-Dioxide (8c)] | 464 nM |  | 
3 | COc1ccc2c(c1)c(OCCN(C)C)c1n2S(=O)(=O)c2ccccc2-1 [2-Methoxy-10-(2-N,N-Dimethylaminoethoxy)-5-Thia-4b-azaindeno[2,1-a]indene-5,5-Dioxide (8d)] | 127 nM |  | 
4 | CN(C)CCOc1c2n(c3cc(Cl)ccc13)S(=O)(=O)c1ccccc1-2 [3-Chloro-10-(2-N,N-Dimethylaminoethoxy)-5-Thia-4-b-azaindeno (8b)] |  | 5.06 µM | 37.1 µM
5 | CN(C)CCOc1c2n(c3ccccc13)S(=O)(=O)c1ccccc1-2 [10-(2-N,N-Dimethylaminoethoxy)-5-Thia-4-b-azaindeno[2,1-a]indene-5,5-Dioxide (8a)] |  | 7.65 µM | > 45 µM
